According to article PMC6704710, “Preclinical evaluation of 3D185, a novel potent inhibitor of FGFR1/2/3 and CSF-1R, in FGFR-dependent and macrophage-dominant cancer models” (Journal of Experimental & Clinical Cancer Research : CR, 2019):

Experiments:
SNU16 = assay: Cell proliferation assay; type: cell-based, human; details: 72 h, mean ± SD
Protocol: (§1) The cancer cell lines indicated in Figure 3 were seeded in 96-well plates at a low density in growth medium. The next day, appropriate controls or the designated concentrations of the compounds were added to each well, and the cells were incubated for 72 h. HUVECs (passage 3) were seeded in 96-well plates in growth medium overnight and transferred to serum-free medium for 24 h. The following day, appropriate controls or the designated concentrations of the compounds were added to each well, and 100 ng/mL growth factor (bFGF or VEGF) was added to the indicated wells. The cells were incubated for 48 h. Finally, cell proliferation was determined using a sulforhodamine B (SRB) assay or a cell counting kit-8 (CCK-8) assay. […] IC50 values for proliferation curves were calculated using a 4-parameter logistic nonlinear regression model with SoftMax Pro Software (Molecular Devices, San Jose, USA).

KG-1 = assay: Cell proliferation assay; type: cell-based, human; details: 72 h, mean ± SD
Protocol: as §1

UMUC14 = assay: Cell proliferation assay; type: cell-based, human; details: 72 h, mean ± SD
Protocol: as §1

SUM52PE = assay: Cell proliferation assay; type: cell-based, human; details: 72 h, mean ± SD
Protocol: as §1

NCI-H1581 = assay: Cell proliferation assay; type: cell-based, human; details: 72 h, mean ± SD
Protocol: as §1

HUH7 = assay: Cell proliferation assay; type: cell-based, human; details: 72 h, mean ± SD
Protocol: as §1

RT112 = assay: Cell proliferation assay; type: cell-based, human; details: 72 h, mean ± SD
Protocol: as §1

NCI-H716 = assay: Cell proliferation assay; type: cell-based, human; details: 72 h, mean ± SD
Protocol: as §1

OPM2 = assay: Cell proliferation assay; type: cell-based, human; details: 72 h, mean ± SD
Protocol: as §1

KATOIII = assay: Cell proliferation assay; type: cell-based, human; details: 72 h, mean ± SD
Protocol: as §1

BMDM (CSF-2) = assay: Macrophage survival (CCK-8); type: cell-based, murine; details: 7 days
Protocol: (§2) Murine bone marrow-derived macrophages (BMDMs) and PBMCs were used for cell viability studies. BMDMs were harvested by flushing the tibias and femurs of 6- to 8-week-old C57BL/6 mice and depleting red blood cells (RBCs) by RBC lysis (Biogems). For BMDM survival, the cells were cultured for 7 days in RPMI 1640 containing 10% fetal bovine serum (FBS), 100 U/mL penicillin, 100 μg/mL streptomycin and 100 ng/mL mouse CSF-1 (or CSF-2) with or without the tested compounds. PBMCs were obtained from HemaCare and cultured for 7 days in RPMI 1640 containing 10% fetal bovine serum (FBS), 100 U/mL penicillin, 100 μg/mL streptomycin and 100 ng/mL human CSF-1 (or CSF-2) with or without the tested compounds. Cell viability was measured using the CCK-8 assay. For IL-4/IL-13-induced macrophage survival analysis, viable cells were counted by trypan blue exclusion.

BMDM (CSF-1) = assay: Macrophage survival (CCK-8); type: cell-based, murine; details: 7 days, mean ± SD
Protocol: (§3) Murine bone marrow and human monocytes were stimulated with CSF-1 for 7 days together with the indicated inhibitor, and cell viability was evaluated by the CCK-8 assay. The IC50 values are shown as the mean ± SD (nM) from two independent tests. B-E, To test the impact of 3D185 on the polarization of CSF-1-induced macrophages, murine bone marrow cells and human monocytes were induced to mature into macrophages with CSF-1 for 7 days and then stimulated with CSF-1, IL-4 and IL-13 for an additional 48 h. The expression of the markers MHC-II (b), CD86 (c), and CD206 (d) on induced murine macrophages and CD206 expression on induced human macrophages (e) were determined by flow cytometry, and the mean fluorescence intensity (MFI) was analyzed with FlowJo. Representative data from two independent experiments. f Murine bone marrow cells (left panel) and human monocytes (right panel) were induced to mature into macrophages with CSF-1 for 7 days and then stimulated with CSF-1, IL-4 and IL-13 and treated with vehicle or the indicated inhibitor for an additional 48 h. Then, all cells were collected to count viable cells by staining with trypan blue
as §2

M-NFS-60 = assay: Cell proliferation assay; type: cell-based, mouse; details: 72 h, mean ± SD
Protocol: as §1

PBMC (CSF-1) = assay: Macrophage survival (CCK-8); type: cell-based; details: Homo sapiens, 168 h, 7 days, mean ± SD
Protocol: as §3
Murine bone marrow-derived macrophages (BMDMs) and PBMCs were used for cell viability studies. […] Cell viability was measured using the CCK-8 assay. For IL-4/IL-13-induced macrophage survival analysis, viable cells were counted by trypan blue exclusion.

[1] = system: MC38 colorectal adenocarcinoma model; assay: In vivo antitumor activity, MC38 model; design: species or system C57BL/6 mice; details: oral once daily 23 days
Protocol: For the MC38 xenograft model, 6-week-old C57BL/6 mice were housed and maintained under specific pathogen-free conditions. Tumor cells (2 × 10^6 in 200 μL) were injected subcutaneously (s.c.) into the right flanks of C57BL/6 mice. […] The tumors were measured twice per week using a microcaliper. Tumor volume (TV) was calculated as follows: TV = (length × width^2)/2. In addition, the individual relative tumor volume (RTV) was calculated as follows: RTV = Vt / V0, where Vt is the volume on a particular day and V0 is the volume at the beginning of the treatment. The RTV is shown on the indicated days as the […] ± SEM for the indicated groups of mice.

[2] = system: CSF-1-differentiated macrophages induced RT112 cell migration; assay: Tumor cell migration assay (Transwell co-culture); type: cell-based, human; details: 25 nM, 24 h
PBMC (CSF-2) = assay: Macrophage survival (CCK-8); type: cell-based; details: Homo sapiens, 168 h, 7 days
Protocol: as §2

## AZD4547 [reference compound]
SNU16
  IC50: 0.0027 ± 0.0004 µM
KG-1
  IC50: 0.003 ± 0.0003 µM
UMUC14
  IC50: 0.0529 ± 0.0046 µM
SUM52PE
  IC50: 0.0155 ± 0.0024 µM
NCI-H1581
  IC50: 0.0438 ± 0.0086 µM
HUH7
  IC50: 0.284 ± 0.0225 µM
RT112
  IC50: 0.0833 ± 0.0064 µM
NCI-H716
  IC50: 0.007 ± 0.0009 µM
OPM2
  IC50: 0.033 ± 0.0076 µM
KATOIII
  IC50: 0.0151 ± 0.0029 µM
BMDM (CSF-2)
  IC50: > 1 µM
BMDM (CSF-1)
  IC50: 0.883 ± 0.133 µM
M-NFS-60
  IC50: 1.23 ± 0.184 µM

## FC(F)(F)c1ccc(CNc2ccc(Cc3c[nH]c4ncc(Cl)cc34)cn2)cn1 [PLX3397, reference compound]
PBMC (CSF-1)
  IC50: 0.22 ± 0.0386 µM
[1]
  effect on MC38 tumor growth: delayed tumor growth
BMDM (CSF-2); Mus musculus, BMDM, 168 h
  IC50: > 1 µM
BMDM (CSF-1); Mus musculus, BMDM, 168 h
  IC50: 0.195 ± 0.0482 µM
[2]
  effect on macrophage-induced RT112 cell migration: no inhibitory effect
PBMC (CSF-2)
  IC50: > 1 µM
